Test results: patent US5698411A, “Method for determining activity of enzymes in metabolically active whole cells” (priority 1995, dated 1997)

How the values were obtained:
[1] = system: substituted rhodamine 110 substrates; assay: modulator effect on substituted rhodamine 110 substrates; assay type: biochemical
Description: Modulators are components used to […] the sensitivity of the enzyme for the leaving group. The modulators speed up or slow down the activity of an enzyme by changing the active site. […] Preferred modulators for particular enzymes are included in Table 1.

[2] = system: metabolically active whole cell; assay: substrate panel in normals and HIV + patients, TB infection (Table 4); assay type: cell-based, human; set-up: unit not given here
Description: A panel of assay compounds are assembled consisting of Ala-aminopeptidase and Lys-aminopeptidase, Dipeptidyl peptidase IV (Ala-Ala)2 rhodamine 110 and Cathepsin D to indicate possible TB infection in AIDS related cases.
A panel Of enzymatic substrates is performed consisting of Ala-aminopeptidase and Lys-aminopeptidase, Dipeptidyl peptidase IV (Ala-Ala)2 rhodamine 110 and Cathepsin D to indicate possible TB infection in AIDS related cases.

lymphocytes = assay: aberrant enzyme activities in febrile children, lymphocytes (Table 7); assay type: cell-based, human
monocytes = assay: aberrant enzyme activities in febrile children, monocytes (Table 7); assay type: cell-based, human
granulocytes = assay: aberrant enzyme activities in febrile children, granulocytes (Table 7); assay type: cell-based, human
[3] = system: acute lympholytic Ficoll prepared lymphocytes; assay: amino peptidase activity in acute lymphocytic leukemia lymphocytes; assay type: cell-based, human; settings: FIG. 4B
Description: The cell's ability to fight off an invader lies within its genetics and therefore cell type. The "readiness" however of any genetically capable group of cells to defend is different. A measure of this "readiness" is manifest in the available proteolytic enzymes contained within vacuoles or on the surface of the cell. The assay compound hydrolysis rate increases with increased mass of enzymes giving a picture of immune competence both in number of cells and activity level. […] Images were generated using Universal Imaging.

aminopeptidase [4] = settings: cited from earlier work
aminopeptidase [5] = assay: inhibition of aminopeptidase reaction with (H-L-Asp)2 rhodamine 110; assay type: biochemical; settings: approximately 10 mM; substrate (H-L-Asp)2 rhodamine 110
Description: The chemical nature of the buffer is important to the reactivity Of the assay compound with the cellular enzymes. […] In addition, the assay compound hydrolysis by the enzyme occurs at an increased rate of reaction.

[6] = system: metabolically active cell; settings: even when buffered
Description: Viability is confirmed with Trypan Blue or PI-FDA over a time period of 10 seconds to 30 minutes. If the viability of the cell sample at between one and three million cells/mL decreases by 10% then the salt of the compound is rejected and another salt of the assay compound is synthesized.

cathepsin B = settings: cited from earlier work
dipeptide reagent = assay: effect of sodium chloride on dipeptide reagent; assay type: biochemical; settings: 7 mM, pH 6.5 to 8.7
Description: Inhibitors and poisons (or toxins) are components that can be added to reduce the activity of non-targeted enzymes that provide competing reactions for the leaving group. Inhibitors are usually very selective for a particular enzyme. For example, EDTA only works with enzymes requiring Ca^+2, Mg^+2 and some other metals. […] Preferred inhibitors for particular enzymes are included in Table 1.

Question: For O[C@H](CS)[C@H](O)CS [Dithiothreitol (DTT), Dithiothreitol], which modulator effect [1] is on record?
Answer: effective modulator

Question: Which results are given for CC(C)C[C@H](N)C(=O)Nc1ccc2c(c1)Oc1cc(NC(=O)[C@@H](N)CC(C)C)ccc1C21OC(=O)c2ccccc21 [LEU, (Leu)2 Rho 110]?
Answer: MEAN DELTA FL ([2]; HIV + PATIENTS): 130.5; MEAN DELTA FL ([2]; NORMALS): 259.6; aberrant enzyme activity, LYMPHS (lymphocytes; P88 Enteritis): + (>0.25 Increase over normal range); aberrant enzyme activity, LYMPHS (lymphocytes; P89 Viral Stomatitis): + (>0.25 Increase over normal range); aberrant enzyme activity, LYMPHS (lymphocytes; P92 Adenitis): + (>0.25 Increase over normal range); aberrant enzyme activity, LYMPHS (lymphocytes; P95 Viral Syndrome): + (>0.25 Increase over normal range); aberrant enzyme activity, LYMPHS (lymphocytes; P96 Viral Syndrome): + (>0.25 Increase over normal range); aberrant enzyme activity, LYMPHS (lymphocytes; P97 Pyelonephritis): .smallcircle.; aberrant enzyme activity, LYMPHS (lymphocytes; P99 Viral Syndrome): .smallcircle.; aberrant enzyme activity, LYMPHS (lymphocytes; P101 Fever -- Unknown Origin): + (>0.25 Increase over normal range); aberrant enzyme activity, LYMPHS (lymphocytes; P102 UTI): .smallcircle.; aberrant enzyme activity, LYMPHS (lymphocytes; P103 Viral Syndrome): + (>0.25 Increase over normal range); aberrant enzyme activity, MONOS (monocytes; P88 Enteritis): + (>0.25 Increase over normal range); aberrant enzyme activity, MONOS (monocytes; P89 Viral Stomatitis): + (>0.25 Increase over normal range); aberrant enzyme activity, MONOS (monocytes; P92 Adenitis): + (>0.25 Increase over normal range); aberrant enzyme activity, MONOS (monocytes; P95 Viral Syndrome): + (>0.25 Increase over normal range); aberrant enzyme activity, MONOS (monocytes; P96 Viral Syndrome): + (>0.25 Increase over normal range); aberrant enzyme activity, MONOS (monocytes; P97 Pyelonephritis): + (>0.25 Increase over normal range); aberrant enzyme activity, MONOS (monocytes; P99 Viral Syndrome): .smallcircle.; aberrant enzyme activity, MONOS (monocytes; P101 Fever -- Unknown Origin): + (>0.25 Increase over normal range); aberrant enzyme activity, MONOS (monocytes; P102 UTI): .smallcircle.; aberrant enzyme activity, MONOS (monocytes; P103 Viral Syndrome): + (>0.25 Increase over normal range); aberrant enzyme activity, GRANS (granulocytes; P88 Enteritis): + (>0.25 Increase over normal range); aberrant enzyme activity, GRANS (granulocytes; P89 Viral Stomatitis): + (>0.25 Increase over normal range); aberrant enzyme activity, GRANS (granulocytes; P92 Adenitis): + (>0.25 Increase over normal range); aberrant enzyme activity, GRANS (granulocytes; P95 Viral Syndrome): + (>0.25 Increase over normal range); aberrant enzyme activity, GRANS (granulocytes; P96 Viral Syndrome): + (>0.25 Increase over normal range); aberrant enzyme activity, GRANS (granulocytes; P97 Pyelonephritis): .smallcircle.; aberrant enzyme activity, GRANS (granulocytes; P99 Viral Syndrome): .smallcircle.; aberrant enzyme activity, GRANS (granulocytes; P101 Fever -- Unknown Origin): + (>0.25 Increase over normal range); aberrant enzyme activity, GRANS (granulocytes; P102 UTI): .smallcircle.; aberrant enzyme activity, GRANS (granulocytes; P103 Viral Syndrome): + (>0.25 Increase over normal range); amino peptidase activity [3]: lost their enzymatic activity

Question: For CC(C)C[C@H](NC(=O)[C@@H](O)[C@H](N)Cc1ccccc1)C(=O)O [bestatin], which inhibition of aminopeptidase (aminopeptidase [4]) is on record?
Answer: selectively inhibits aminopeptidase

Question: For [Ca+2].[Cl-].[Cl-] [calcium chloride], which “inhibitory to the enzyme reaction” value (aminopeptidase [5]) is on record?
Answer: inhibitory

Question: For O[C@H](CS)[C@@H](O)CS [dithioerythritol (DTE), dithioerythritol], which “sensitivity of the leaving group for the enzyme” value ([1]; 1 mM, Ala-Gly and Leu-Gly substrates) is on record?
Answer: does not change the sensitivity

Question: What about the “sensitivity of the substituted rhodamine 110 substrates” value ([1]; 1 mM, Pro, Gly, Gln-Ser, Val-Lys-Val-Lys, Ala-Ala, Ala-Ala-Ala-Ala substrates) of the same molecule?
Answer: decreases the sensitivity

Question: Which cell killing [6] does the source give for Br.Cc1ncc(C)n2nc(CCc3nc(-c4ccccc4)cn3C)nc12 [hydrogen bromide (HBr), hydrogen bromide] here?
Answer: kills cells

Question: Which “inhibition of cathepsin B” value (cathepsin B) does the source give for CC(=O)N[C@@H](CC(C)C)C(=O)N[C@@H](CC(C)C)C(=O)N[C@H](C=O)CCCNC(=N)N [leupeptin] here?
Answer: selectively inhibits cathepsin B

Question: For [Cl-].[Na+] [sodium chloride], which “inhibitory effect on dipeptide reagent” value (dipeptide reagent) is on record?
Answer: slightly inhibitory effect
